Active and inactive are the calls of the source. No cut-off for these calls is given here. Square brackets hold non-standard residues; d marks the D form. Peptide text beside a SMILES is read from it. * marks the point of attachment. d(hPhe) = N[C@H](CCc1ccccc1)C(=O)O; Bn = c1ccc(C*)cc1; NHOH = ON*
What was measured:
[1] = biological target: T1, Macrophage metalloelastase (Homo sapiens, UniProt P39900); test: Binding affinity to recombinant human MMP12 catalytic domain (Gly106 to […] residues) expressed in Escherichia coli BL21 codon plus by 2D [15N,1H] HMQC spectra analysis
Target sequence in this assay (P39900 whole entry, the tested form may be a part): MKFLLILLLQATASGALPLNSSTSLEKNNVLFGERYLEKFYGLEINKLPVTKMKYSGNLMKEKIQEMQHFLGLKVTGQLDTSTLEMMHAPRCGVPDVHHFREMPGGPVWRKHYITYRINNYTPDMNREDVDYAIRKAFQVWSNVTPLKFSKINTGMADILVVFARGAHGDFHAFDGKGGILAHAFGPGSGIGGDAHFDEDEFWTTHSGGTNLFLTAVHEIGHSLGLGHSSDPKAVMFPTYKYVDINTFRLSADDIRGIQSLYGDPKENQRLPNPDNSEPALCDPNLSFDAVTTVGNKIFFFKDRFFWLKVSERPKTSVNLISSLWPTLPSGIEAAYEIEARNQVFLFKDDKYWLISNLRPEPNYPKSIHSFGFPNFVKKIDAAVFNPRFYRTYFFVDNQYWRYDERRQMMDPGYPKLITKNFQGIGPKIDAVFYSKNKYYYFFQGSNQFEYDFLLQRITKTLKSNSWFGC

[2] = biological target: Matrix metalloproteinase-14 (Homo sapiens) (UniProt P50281); test: Inhibition of MMP14 (unknown origin) at 1 uM
[3] = biological target: T1, Macrophage metalloelastase; test: Binding affinity to recombinant human MMP12 catalytic domain (Gly106 to […] residues) expressed in Escherichia coli BL21 codon plus by 1D 1H aliphatic NMR spectra analysis
Target sequence in this assay (P39900 whole entry, the tested form may be a part): as above

[4] = biological target: T2, Interstitial collagenase (Homo sapiens) (UniProt P03956); test: Inhibition of MMP1 (unknown origin) at 1 uM
T2 sequence (whole entry): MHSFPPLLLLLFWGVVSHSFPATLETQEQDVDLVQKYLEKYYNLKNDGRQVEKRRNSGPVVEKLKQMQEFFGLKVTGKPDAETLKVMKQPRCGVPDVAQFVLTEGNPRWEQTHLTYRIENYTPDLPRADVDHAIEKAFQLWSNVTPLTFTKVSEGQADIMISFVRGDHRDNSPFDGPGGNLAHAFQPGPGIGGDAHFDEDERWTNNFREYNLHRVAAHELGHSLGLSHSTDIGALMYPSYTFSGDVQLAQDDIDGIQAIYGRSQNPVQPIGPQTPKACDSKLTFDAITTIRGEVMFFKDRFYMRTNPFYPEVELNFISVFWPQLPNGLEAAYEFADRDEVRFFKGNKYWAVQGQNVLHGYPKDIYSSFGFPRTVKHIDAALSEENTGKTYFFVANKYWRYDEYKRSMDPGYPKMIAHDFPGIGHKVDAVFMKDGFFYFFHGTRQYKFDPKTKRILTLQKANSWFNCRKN

[5] = biological target: Matrix metalloproteinase-9 (Homo sapiens) (UniProt P14780); test: Inhibition of MMP9 (unknown origin) at 1 uM
Sequence of Matrix metalloproteinase-9 (Homo sapiens) (P14780 whole entry): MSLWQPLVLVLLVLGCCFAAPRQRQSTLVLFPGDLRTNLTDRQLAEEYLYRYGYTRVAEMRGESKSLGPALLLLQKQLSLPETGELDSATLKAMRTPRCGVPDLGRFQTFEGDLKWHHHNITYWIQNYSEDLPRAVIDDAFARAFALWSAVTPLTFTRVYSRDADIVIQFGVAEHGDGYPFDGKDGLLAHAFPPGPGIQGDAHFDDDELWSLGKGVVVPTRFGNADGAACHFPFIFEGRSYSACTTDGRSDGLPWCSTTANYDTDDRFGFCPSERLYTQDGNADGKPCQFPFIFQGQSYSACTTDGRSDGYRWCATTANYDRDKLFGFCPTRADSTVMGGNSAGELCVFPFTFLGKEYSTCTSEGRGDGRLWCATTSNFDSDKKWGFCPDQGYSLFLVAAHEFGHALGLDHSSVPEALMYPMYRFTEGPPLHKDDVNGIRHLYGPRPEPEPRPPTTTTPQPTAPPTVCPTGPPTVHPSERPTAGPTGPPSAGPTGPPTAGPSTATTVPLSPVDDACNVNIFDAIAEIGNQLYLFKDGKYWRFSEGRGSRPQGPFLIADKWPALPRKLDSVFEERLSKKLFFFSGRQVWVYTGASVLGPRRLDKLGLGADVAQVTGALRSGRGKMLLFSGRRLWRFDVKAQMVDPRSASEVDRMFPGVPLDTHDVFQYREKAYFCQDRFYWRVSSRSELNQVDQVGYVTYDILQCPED

[6] = biological target: Stromelysin-1 (Homo sapiens) (UniProt P08254); test: Inhibition of recombinant human C-terminal DYKDDDDK tagged MMP3 expressed in mammalian expression system at 55 nM relative to control
Sequence of Stromelysin-1 (Homo sapiens) (P08254 100-477 limits assumed): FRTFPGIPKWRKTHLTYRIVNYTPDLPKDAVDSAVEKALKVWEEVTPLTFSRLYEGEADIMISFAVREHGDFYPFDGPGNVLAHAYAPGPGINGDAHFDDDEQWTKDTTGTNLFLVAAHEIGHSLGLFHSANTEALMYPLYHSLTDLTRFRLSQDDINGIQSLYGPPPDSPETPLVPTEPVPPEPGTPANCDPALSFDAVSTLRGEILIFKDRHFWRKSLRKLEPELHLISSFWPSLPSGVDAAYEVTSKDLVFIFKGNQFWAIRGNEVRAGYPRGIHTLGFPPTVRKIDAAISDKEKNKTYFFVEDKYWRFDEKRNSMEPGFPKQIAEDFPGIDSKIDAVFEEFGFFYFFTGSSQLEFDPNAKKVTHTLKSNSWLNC

[7] = biological target: T1, Macrophage metalloelastase; test: Inhibition of recombinant human MMP12 catalytic domain (Gly106 to […] residues) expressed in Escherichia coli BL21 codon plus using Mca-Pro-Leu-Gly-Leu-Dpa-Ala-Arg-NH2 as substrate by fluorescence assay
Target sequence in this assay (P39900 whole entry, the tested form may be a part): as the sequence (P39900 whole entry, the tested form may be a part) above

[8] = biological target: Stromelysin-1 (Homo sapiens) (UniProt P08254); test: Inhibition of recombinant human C-terminal DYKDDDDK tagged MMP3 expressed in mammalian expression system at 1 uM relative to control
[9] = biological target: T1, Macrophage metalloelastase; test: Inhibition of recombinant human C-terminal DYKDDDDK tagged MMP12 expressed in mammalian expression system at 55 to 100 nM
Target sequence in this assay (P39900 106-470 limits assumed): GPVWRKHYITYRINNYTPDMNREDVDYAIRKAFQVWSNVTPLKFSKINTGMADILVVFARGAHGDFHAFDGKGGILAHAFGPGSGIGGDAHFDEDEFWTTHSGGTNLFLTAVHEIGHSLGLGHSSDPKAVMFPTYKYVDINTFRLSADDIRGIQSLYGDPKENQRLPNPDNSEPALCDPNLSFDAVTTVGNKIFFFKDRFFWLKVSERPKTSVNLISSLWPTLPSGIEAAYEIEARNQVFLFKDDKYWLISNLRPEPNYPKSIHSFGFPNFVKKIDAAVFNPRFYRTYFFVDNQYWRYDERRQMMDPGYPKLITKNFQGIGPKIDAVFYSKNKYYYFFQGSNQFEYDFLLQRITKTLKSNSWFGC

[10] = biological target: T1, Macrophage metalloelastase; details: 1 uM
Target sequence in this assay (P39900 106-470 limits assumed): as above

Row | Kd [1] [µM] | inhibition [2] | Kd [3] [µM] | inhibition [4] | inhibition [5] | inhibition [6] [%] | IC50 [7] [µM] | inhibition [8] | inhibition [9] | inhibition [10] | Structure (SMILES)
1 | < 0.05 | Active | < 0.05 | Active | Active | 19 | 0.0547 | 78% | Active | – | CC(=O)N[C@@H](COCc1ccccc1)C(=O)N[C@H](CCc1ccccc1)C(=O)N[C@H](Cc1ccccc1)C(=O)NO (Ac-Ser(Bn)-[d(hPhe)]-[dF]-{NHOH})
2 | – | Active | – | Active | Active | – | 0.0052 | Active | – | Active | CNC(=O)[C@H](Cc1c[nH]c2ccccc12)NC(=O)[C@@H](CC(=O)NO)CC(C)C [ILOMASTAT]

Reference: ChEMBL document CHEMBL4138305, “HTS by NMR for the Identification of Potent and Selective Inhibitors of Metalloenzymes” (ACS Med Chem Lett, 2018)
